Test results: PubChem BioAssay (NCI)
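Interpolation was linear, between the two tested concentrations surrounding the appropriate level; five concentrations were tested over 48 hours in 96-well plates. GI50 marks 50% less growth. The concentration for full growth arrest is given as TGI.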

Legend:
Experiment in all cases: NCI tumour cell line growth inhibition, 48 h; in the data active means GI50 below about 0.43 µM; inactive means the rest
SK-MEL-28 melanoma = tested on: SK-MEL-28 melanoma
MALME-3M melanoma = tested on: MALME-3M melanoma
HOP-62 NSCLC = tested on: HOP-62 NSCLC
OVCAR-3 ovarian = tested on: OVCAR-3 ovarian
HCC-2998 colon = tested on: HCC-2998 colon
UACC-62 melanoma = tested on: UACC-62 melanoma
HOP-92 NSCLC = tested on: HOP-92 NSCLC
786-0 renal = tested on: 786-0 renal
MCF7 breast = tested on: MCF7 breast
UACC-257 melanoma = tested on: UACC-257 melanoma
SF-539 CNS = tested on: SF-539 CNS
KM12 colon = tested on: KM12 colon
BT-549 breast = tested on: BT-549 breast
SR leukemia = tested on: SR leukemia
EKVX NSCLC = tested on: EKVX NSCLC
HL-60(TB) leukemia = tested on: HL-60(TB) leukemia
NCI-H226 lung = tested on: NCI-H226 lung
LOX IMVI melanoma = tested on: LOX IMVI melanoma
MDA-MB-435 = tested on: MDA-MB-435
MDA-MB-468 breast = tested on: MDA-MB-468 breast
DU-145 prostate = tested on: DU-145 prostate
OVCAR-8 ovarian = tested on: OVCAR-8 ovarian
SF-268 CNS = tested on: SF-268 CNS
HT29 colon = tested on: HT29 colon
SN12C renal = tested on: SN12C renal
SNB-19 CNS = tested on: SNB-19 CNS
M14 melanoma = tested on: M14 melanoma
PC-3 prostate = tested on: PC-3 prostate
K-562 leukemia = tested on: K-562 leukemia
NCI-H522 lung = tested on: NCI-H522 lung
OVCAR-4 ovarian = tested on: OVCAR-4 ovarian
MDA-MB-231 breast = tested on: MDA-MB-231 breast
NCI-H23 lung = tested on: NCI-H23 lung
A549 NSCLC = tested on: A549 NSCLC
OVCAR-5 ovarian = tested on: OVCAR-5 ovarian
SK-MEL-2 melanoma = tested on: SK-MEL-2 melanoma
HCT-15 colon = tested on: HCT-15 colon
SK-OV-3 ovarian = tested on: SK-OV-3 ovarian
HCT-116 colon = tested on: HCT-116 colon
A498 renal = tested on: A498 renal
SNB-75 CNS = tested on: SNB-75 CNS
T-47D breast = tested on: T-47D breast
NCI-H460 lung = tested on: NCI-H460 lung
CAKI-1 renal = tested on: CAKI-1 renal
MOLT-4 leukemia = tested on: MOLT-4 leukemia
RPMI-8226 leukemia = tested on: RPMI-8226 leukemia
ACHN renal = tested on: ACHN renal
SK-MEL-5 melanoma = tested on: SK-MEL-5 melanoma
SW-620 colon = tested on: SW-620 colon
COLO 205 colon = tested on: COLO 205 colon
RXF 393 renal = tested on: RXF 393 renal
SF-295 CNS = tested on: SF-295 CNS
HS 578T breast = tested on: HS 578T breast
U251 CNS = tested on: U251 CNS
TK-10 renal = tested on: TK-10 renal

COc1cc(C2CC(c3ccc(Cl)cc3)=Nc3c(N)nc(N)nc3N2)ccc1Oc1nc(Nc2ccc(F)cc2)nc(N(C)C)n1 (stereo not given)
inactive: GI50 (SK-MEL-28 melanoma) > 100 µM | GI50 (MALME-3M melanoma) > 100 µM | GI50 (HOP-62 NSCLC) > 100 µM | GI50 (OVCAR-3 ovarian) > 100 µM | GI50 (HCC-2998 colon) 45.3 µM | GI50 (UACC-62 melanoma) > 100 µM | GI50 (HOP-92 NSCLC) 3 µM | GI50 (786-0 renal) > 100 µM | GI50 (MCF7 breast) 9.91 µM | GI50 (UACC-257 melanoma) > 100 µM | GI50 (SF-539 CNS) > 100 µM | GI50 (KM12 colon) 40.1 µM | GI50 (BT-549 breast) 35.5 µM | GI50 (SR leukemia) 3.41 µM | GI50 (EKVX NSCLC) > 100 µM | GI50 (HL-60(TB) leukemia) 44.7 µM | GI50 (NCI-H226 lung) > 100 µM | GI50 (LOX IMVI melanoma) 47.8 µM | GI50 (MDA-MB-435) > 100 µM | GI50 (MDA-MB-468 breast) 17.8 µM | GI50 (DU-145 prostate) > 100 µM | GI50 (OVCAR-8 ovarian) > 100 µM | GI50 (SF-268 CNS) > 100 µM | GI50 (HT29 colon) 29.4 µM | GI50 (SN12C renal) > 100 µM | GI50 (SNB-19 CNS) > 100 µM | GI50 (M14 melanoma) > 100 µM | GI50 (PC-3 prostate) 6.16 µM | GI50 (K-562 leukemia) 4.5 µM | GI50 (NCI-H522 lung) > 100 µM | GI50 (OVCAR-4 ovarian) 18.9 µM | GI50 (MDA-MB-231 breast) 6.73 µM | GI50 (NCI-H23 lung) > 100 µM | GI50 (A549 NSCLC) > 100 µM | GI50 (OVCAR-5 ovarian) > 100 µM | GI50 (SK-MEL-2 melanoma) > 100 µM | GI50 (HCT-15 colon) 76.6 µM | GI50 (SK-OV-3 ovarian) > 100 µM | GI50 (HCT-116 colon) 12.5 µM | GI50 (A498 renal) > 100 µM | GI50 (SNB-75 CNS) 3.24 µM | GI50 (T-47D breast) > 100 µM | GI50 (NCI-H460 lung) 42.3 µM | GI50 (CAKI-1 renal) 3.38 µM | GI50 (MOLT-4 leukemia) 8.54 µM | GI50 (RPMI-8226 leukemia) 26.4 µM | GI50 (ACHN renal) > 100 µM | GI50 (SK-MEL-5 melanoma) 17.2 µM | GI50 (SW-620 colon) > 100 µM | GI50 (COLO 205 colon) > 100 µM | GI50 (RXF 393 renal) 2.46 µM | GI50 (SF-295 CNS) > 100 µM | GI50 (HS 578T breast) 84.8 µM | GI50 (U251 CNS) > 100 µM | GI50 (TK-10 renal) > 100 µM
> 100 µM: TGI (SK-MEL-28 melanoma) | TGI (MALME-3M melanoma) | TGI (HOP-62 NSCLC) | TGI (OVCAR-3 ovarian) | TGI (HCC-2998 colon) | TGI (UACC-62 melanoma) | TGI (HOP-92 NSCLC) | TGI (786-0 renal) | TGI (MCF7 breast) | TGI (UACC-257 melanoma) | TGI (SF-539 CNS) | TGI (KM12 colon) | TGI (BT-549 breast) | TGI (SR leukemia) | TGI (EKVX NSCLC) | TGI (HL-60(TB) leukemia) | TGI (NCI-H226 lung) | TGI (LOX IMVI melanoma) | TGI (MDA-MB-435) | TGI (MDA-MB-468 breast) | TGI (DU-145 prostate) | TGI (OVCAR-8 ovarian) | TGI (SF-268 CNS) | TGI (HT29 colon) | TGI (SN12C renal) | TGI (SNB-19 CNS) | TGI (M14 melanoma) | TGI (PC-3 prostate) | TGI (K-562 leukemia) | TGI (NCI-H522 lung) | TGI (OVCAR-4 ovarian) | TGI (MDA-MB-231 breast) | TGI (NCI-H23 lung) | TGI (A549 NSCLC) | TGI (OVCAR-5 ovarian) | TGI (SK-MEL-2 melanoma) | TGI (HCT-15 colon) | TGI (SK-OV-3 ovarian) | TGI (HCT-116 colon) | TGI (A498 renal) | TGI (SNB-75 CNS) | TGI (T-47D breast) | TGI (NCI-H460 lung) | TGI (CAKI-1 renal) | TGI (MOLT-4 leukemia) | TGI (RPMI-8226 leukemia) | TGI (ACHN renal) | TGI (SW-620 colon) | TGI (COLO 205 colon) | TGI (RXF 393 renal) | TGI (SF-295 CNS) | TGI (HS 578T breast) | TGI (U251 CNS) | TGI (TK-10 renal)
52 µM: TGI (SK-MEL-5 melanoma)
